The term IC50 denotes the concentration that inhibits the measured activity by half.

Data on 16 compounds can be found in patent publication US20110098309A1, “METHODS OF INHIBITING THE FORMATION OF AMYLOID-BETA DIFFUSABLE LIGANDS USING ACYLHYDRAZIDE COMPOUNDS” (priority 2007, published 2011).

In this experiment the target is Aβ1-42 (Homo sapiens, UniProt P05067). The experiment can be described thus: FRET assay of Aβ1-42 oligomer (ADDL) assembly inhibition. The settings on record: 0.2 μM FITC-Aβ(1-42) and 0.8 μM Aβ(1-42), 37° C., six concentrations from about 10 μM to about 0.03 μM. It is filed as biochemical. The essentials:
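Fluorescein-quenching FRET read with 0.2 μM FITC-Aβ(1-42) plus 0.8 μM Aβ(1-42) in 25 mM MOPS-Tris pH 8.0, 100 mM MgCl2, 37° C. Compound tested at six concentrations from about 10 μM down to about 0.03 μM. Fluorescence read every five minutes over about three hours; inhibition seen as absent or attenuated quenching.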

Sequence of Aβ1-42 (P05067 672-713 limits assumed): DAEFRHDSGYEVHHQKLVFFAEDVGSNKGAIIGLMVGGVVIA

Compound `COc1ccc(O)c(/C=N/NC(=O)c2[nH]c3ccccc3c2Cl)c1` [Compound 44, 3-chloro-N′-(2-hydroxy-5-methoxybenzylidene)-1H-indole-2-carbohydrazide] had an IC50 of 3.2 µM.

In turn, `COc1ccc(O)c(/C=N/NC(=O)c2cc(-c3ccc(Cl)s3)n[nH]2)c1` [Compound 107, 3-(5-chlorothiophen-2-yl)-N′-(2-hydroxy-5-methoxybenzylidene)-1H-pyrazole-5-carbohydrazide] registered an IC50 of 40.1 µM.

Turning to `O=C(N/N=C(/c1cc(Cl)ccc1O)C(F)(F)F)c1ccccc1O` [Compound 102, N′-(1-(5-chloro-2-hydroxyphenyl)-2,2,2-trifluoroethylidene)-2-hydroxybenzohydrazide], the IC50 was 34 µM.

`O=C(N/N=C(/CC(=O)N1CCN(Cc2ccccc2)CC1)C(F)(F)F)c1ccccc1O` [Compound 3, N′-(4-(4-benzylpiperazin-1-yl)-1,1,1-trifluoro-4-oxobulan-2-ylidene)-2-hydroxy-benzohydrazide] displayed an IC50 of 5.2 µM.

Compound `O=C(C/C(=N/NC(=O)c1ccccc1O)C(F)(F)F)c1cc2ccccc2s1` [Compound 8, N′-(4-(benzo[b]thiophen-2-yl)-1,1,1-trifluoro-4-oxobutan-2-ylidene)-2-hydroxy benzohydrazide] came in with an IC50 of 7.7 µM.

The compound `Cc1cc(C(=O)N/N=C/c2c(O)ccc3ccccc23)[nH]n1` [Compound 97, N′-((2-hydroxynaphthalen-1-yl)methylene)-3-methyl-1H-pyrazole-5-carbohydrazide] gave an IC50 of 30.6 µM.

As for `COc1ccc(O)c(/C=N/NC(=O)c2cccc3cccc(O)c23)c1` [Compound 105, 8-hydroxy-N′-(2-hydroxy-5-methoxybenzylidene)-1-naphthohydrazide], the IC50 turned out to be 36.5 µM.

In the case of `COc1ccc(O)c(/C=N/NC(=O)c2cccc3cc[nH]c23)c1` [Compound 58, N′-(2-hydroxy-5-methoxy-benzylidene)-1H-indole-7-carbohydrazide], the IC50 amounted to 6.4 µM.

In turn, `O=C(N/N=C/c1ccc(O)cc1O)c1ccccc1O` [Compound 90, N′-(2,4-dihydroxybenzylidene)-2-hydroxy-benzohydrazide] returned an IC50 of 21.4 µM.

Compound `Cc1ccc(C(=O)C/C(=N/NC(=O)c2ccccc2O)C(F)(F)F)s1` [Compound 13, 2-hydroxy-N′-(1,1,1-trifluoro-4-(5-methylthiophen-2-yl)-4-oxobutan-2-ylidene) benzohydrazide] displayed an IC50 of 9.1 µM.

With `O=C(N/N=C/c1cc(Br)cc(I)c1O)c1cccc(F)c1` [Compound 39, N′-(5-bromo-2-hydroxy-3-iodobenzylidene)-3-fluoro-benzohydrazide], the IC50 came to 1.6 µM.

With `COc1ccc(O)c(/C=N/NC(=O)c2cccc3c2NC(=O)C3)c1` [Compound 52, N′-(2-hydroxy-5-methoxy-benzylidene)-2-oxoindoline-7-carbohydrazide], the IC50 was found to be 4.2 µM.

Compound `COc1ccc(O)c(/C=N/NC(=O)c2c(O)ccc3ccccc23)c1` [Compound 66, 2-hydroxy-N′-(2-hydroxy-5-methoxy-benzylidene)-1-naphtho-hydrazide] returned an IC50 of 7.7 µM.

The compound `O=C(C/C(=N/NC(=O)c1[nH]c2ccccc2c1Cl)C(F)(F)F)c1cccs1` [Compound 30, 3-chloro-N′-(1,1,1-trifluoro-4-oxo-4-(thiophen-2-yl)butan-2-ylidene)-1H-indole-2-carbohydrazide] showed an IC50 of 28.3 µM.

Regarding `Cc1nnsc1C(=O)N/N=C(/CC(=O)c1cccs1)C(F)(F)F` [Compound 11, 4-methyl-N′-(1,1,1-trifluoro-4-oxo-4-(thiophen-2-yl)butan-2-ylidene)-1,2,3-thiadiazole-5-carbohydrazide], the IC50 was determined as 8.4 µM.

Compound `CCOC(=O)c1c(C)oc2cc(Br)c(O)c(/C=N/NC(=O)c3ccccc3O)c12` [Compound 77, ethyl 6-bromo-5-hydroxy-4-((2-(2-hydroxybenzoyl)hydrazono)methyl)-2-methyl-benzofuran-3-carboxylate] registered an IC50 of 11.6 µM.
